As a reminder, the AUC is concentration integrated over time. Broadly, the half-life is the time needed for the level to fall by half in the phase considered. Read a low half-life as rapid decline.

Data set [1] can be described thus: First-in-human trial, dose escalation phase: full-course PK profiling of PST3.1a. Type of data set: in vivo. To be noted: for AUC / C-max / T1/2 / T-Max: oral; for Pre dosing: oral bid. The text has this:
The proposed clinical trial is a first-in-human trial (FIH) in patients with advanced solid tumours, including a dose escalation phase (part I) enrolling patients with any type of tumour with safety/tolerability as the primary endpoint, pharmacokinetics, evaluation of a potential food effect, and efficacy as secondary endpoints, followed by an expansion phase (part II) recruiting patients with glioblastoma (GBM—23 patients, cohort 1), triple negative breast cancer (TNBC—15 patients, cohort 2) and other selected solid tumours (30 patients, cohort 3). The dose for the expansion phase is selected based on the results of the escalation phase. Pharmacodynamics and response prediction is an exploratory objective of this whole FIH study.
To characterize the pharmacokinetics (PK) profile of PST3.1a by establishing the PK profile of the drug including assessment of a potential food effect on drug exposure.
A standard 3+3 design is followed for the escalation phase. PST3.1a is administered orally twice a day (bid) continuously in cycles of 21 days. At each Dose Level (DL), three patients are included and the first patient is observed for at least 21 days before enrolling the following two. Three additional patients are enrolled at each DL if a Dose Limiting Toxicity (DLT) is observed in the first three patients. No intra-patient dose escalation is allowed. The Maximum Tolerated Dose (MTD) is defined as the highest dose at which a DLT is observed in 0/3 or 1/6 patients and is considered as the recommended phase 2 dose (RP2D).
The dose escalation phase includes two steps: • In step 1, one dose (DL1) of PST3.1a is tested, corresponding to the dose of 10 mg/kg/day bid.
Two full-course PK profiling are obtained for each patient: one at C1D1 (Cycle 1/Day 1) in fasted state patients and another at C2D1 (Cycle 2/Day 1) in fed state patients (omitting the evening dose of PST3.1a on CID1 and C2D1). • In step 2, three DL (DL2a to 4a) with PST3.1a administered to fasted patients at the dose of 20, 40 and 70 mg/kg/day bid (i.e. twice a day), respectively, and/or three DL (DL2b to 4b) with PST3.1a administered to fed patients at the dose of 10, 20 and 40 mg/kg/day bid, respectively, could be opened.
For each patient included in the second step of the dose escalation, a full-course PK profiling is performed: • a. for DL2a, 3a and 4a, at C1D1 in fasted state; • b. for DL2b, 3b and 4b at C1D1 in fed state; • c. for DL2b only, 4 days before beginning treatment (C1D4), in fasted state.
PST3.1a is supplied as a drinkable solution in vials of 2 mL and 10 mL. Patients are provided with an appropriate number of 2 mL and 10 mL vials, as well as with a specific dosing device, in order to combine them to reach the appropriate volume. Volumes of DP to be administered at each dosing occasion are rounded in a standardized way according to patient body weight range, as described in Table 2.
PST3.1a is administered per os every 12±1 hours to fasted patients or after a regular meal, according to the schedule of the DL in which the patient is included. Fasting is defined as no food intake for 2 hours before and two hours after study drug administration. Cycles is of 21 days. If treatment is delayed for reasons other than toxicity, a maximal delay of 1 day is accepted.

A short description of data set [2]: Dynamic vapor sorption (DVS) analysis of the crystalline form. Type of data set: physicochemical. The text has this: In a particular embodiment, the crystalline form of the invention is non-hygroscopic.
[3] abbreviates: DL1 = 10 mg/kg/day, FED patients.
The mark [4] stands for this setting: DL1 = 10 mg/kg/day, fasted patients.
Where [5] appears, read: DL2 = 20 mg/kg/day, fasted patients.
Setting [6] is: DL3 = 40 mg/kg/day, fasted patients.

Several values for one entry are separate records, joined by “and”; a condition that tells them apart may be missing. Identical values can stand only once. Like-named read-outs stand apart in the source and are kept apart here.

For the compound `O=[P@@]1(c2ccccc2)O[C@H](COCc2ccccc2)[C@@H](OCc2ccccc2)[C@H](OCc2ccccc2)C1O` (some centres unmarked) [PST3.1a, 3-Hydroxy-4,5-bis-benzyloxy-6-benzyloxymethyl-2-phenyl-2-oxo-2λ5-[1,2]oxaphosphinane], in data set [1] (DL1 = 10 mg/kg/day, comparison of Table 4), the “Food effect on drug exposure (fed vs fasted patients)” value is given as “significative fed effect”. In addition, the AUC in data set [1] (setting [3]) was 426 ng·h/mL; in data set [1] (setting [4]), 225 ng·h/mL; in data set [1] (setting [6]), 650.6 ng·h/mL and 626.6 ng·h/mL; in data set [1] (human, in vivo, po, 10 mg/kg/day, DL1 = 10 mg/kg/day, FED patients, read-out: AUC), 587 ng·h/mL; in data set [1] (human, in vivo, po, 10 mg/kg/day, DL1 = 10 mg/kg/day, fasted patients, read-out: AUC), 310 ng·h/mL; in data set [1] (human, in vivo, po, 20 mg/kg/day, DL2 = 20 mg/kg/day, fasted patients, read-out: AUC) it was 340 ng·h/mL. The AUC in data set [1] (human, in vivo, po, 40 mg/kg/day, DL3 = 40 mg/kg/day, fasted patients, read-out: AUC) was found to be 336 ng·h/mL. Besides, the C-max in data set [1] (setting [3]) is 43 ng/mL and 27.9 ng/mL; in data set [1] (setting [4]), 42 ng/mL and 28 ng/mL; in data set [1] (setting [5]), 67.7 ng/mL; in data set [1] (setting [6]) it was 56.2 ng/mL and 97.6 ng/mL and 108.9 ng/mL. Moreover, the T1/2 in data set [1] (setting [3]) was found to be 11.7 h; in data set [1] (setting [4]) it was 8.1 h. Further, the Pre dosing was 20.6 ng/mL in data set [1] (setting [5]); 25.4 ng/mL and 46.3 ng/mL in data set [1] (setting [6]). Moreover, the T-Max in data set [1] (setting [5]) is 1 h; in data set [1] (setting [6]), 1.5 h and 2 h (2×). The half-life was 17.5 h in data set [1] (human, in vivo, po, 10 mg/kg/day, DL1 = 10 mg/kg/day, FED patients); 9.2 h in data set [1] (human, in vivo, po, 10 mg/kg/day, DL1 = 10 mg/kg/day, fasted patients); 7.9 h in data set [1] (human, in vivo, po, 20 mg/kg/day, DL2 = 20 mg/kg/day, fasted patients). In addition, the Hygroscopicity entry in data set [2] (crystalline form) is listed as “non-hygroscopic”. In data set [2] (relative humidity range 0% RH to 95% RH), the “Weight loss in DVS analysis” value is “lower than 0.1%”.

(Values after patent publication US20250325570A1, “DOSE AND REGIMEN FOR A HETEROCYCLIC PHOSPHINIC COMPOUND” (PHOST'IN THERAPEUTICS, priority 2022, published 2025).)
